Results: patent US6828318B2 (priority 2000, dated 2004)
Structures can show the parent of a compound that is named as a salt.

Columns and labels:
[1] = target: PCP site of the NMDA receptor; assay: NMDA receptor binding: displacement of [3H]-MK-801 from rat cortical homogenates; conditions: rat cortical membranes, 5 nM [3H]-MK-801, 10 μM glutamate, 10 μM glycine; read-out: IC50, potency to displace [3H]-MK-801 from rat cortical homogenates
Description: The NMDA receptor contains several distinct binding domains that can regulate opening of the cationic channel. The phencyclidine (PCP) site of the NMDA receptor can be radiolabeled with [^3H]-(+)-5-methyl-10,11-dihydro-5H-dibenzo[a,d]cyclohepten-5,10-imine hydrogen maleate, [^3H-MK-801]. The following describes the procedure for determining the affinity of compounds for the PCP site in rat cortical membranes.
Frozen rat cortex, homogenized in 10 volumes of ice-cold 0.32-M sucrose is centrifuged at 1,000 g for 12 min and the supernatant stored on ice whilst the pellet is resuspended, rehomogenized and recentrifuged twice more. The three final supernatants are pooled and centrifuged at 30,000 g for 40 min at 4° C. to yield P2 pellets. These are resuspended in ice-cold distilled water, and centrifuged at 30,000 g for 50 min at 4° C. Following three further washes in distilled water, the P2 pellets are stored at −20° C. for at least 18 h. On the day of the assay, membrane pellets are thawed at room temperature, resuspended in ice-cold distilled water and centrifuged at 30,000 g for 20 min. The pellets are resuspended in 50-mM tris-HCl (pH:7.4) and recentrifuged twice more before being resuspended in tris-HCl for immediate use in the assay. Binding assays are performed at equilibrium in a total volume of 200 μL, containing [^3H]-MK-801 (5-nM final conc.), 10-μM glutamate, 10-μM glycine, 160 μL of membrane preparation and additional drugs where appropriate. Non-specific binding is determined using MK-801 (10-μM). The assay is incubated for 120 min at room temperature. The incubation is terminated by rapid filtration through Whatman GF/B filters (pre-soaked in 0.1% PEI solution). The assay tubes and filters are washed five times with 1 mL of ice-cold assay buffer. The filters are placed in poly-Q mini vials with approximately 5 mL of scintillation fluid. The vials are then shaken and left for at least 8 h before being counted on a liquid scintillation counter. To determine the free ligand concentration 3 aliquots (20 μL) of the [^3H]-MK-801 working solution are also counted. Concentration response data for drugs is analysed using a 4 parameter equation fitted by non-linear regression. This yields the half maximally effective drug concentration (IC50) and Hill coefficient.

male Sprague Dawley rats [2] = assay: Assessment of side-effect liability (PCP syndrome), behavioural rating; assay type: in vivo, rat
Method: Side effect liability was assessed by utilising a standardised […] rating of behaviours recognised to be elicited by prototypical psychotomimetic NMDA receptor channel blockers such as phencyclidine and aptiganel (Cerestat™), similar to those reported by Martin et al., Life Sci 1979 24:1699-1703. Groups of eight male Sprague Dawley rats weighing 250-280 g. were placed in Plexiglass chambers and administered test compounds. After 20 minutes the percentage of rats in each group showing the behaviours noted in Table 2 was rated.
Ratings were plotted on ethograms to illustrate the profile of effect of each test compound.

male Sprague Dawley rats [3] = assay: Assessment of analgesia: sub-plantar formalin injection into the rat hind paw; assay type: in vivo; conditions: rat formalin test, second phase t=5 to t=30 min, drug 20 min before formalin
Method: Analgesia testing was performed in male Sprague Dawley rats weighing 200-250 g. Drugs were administered 20 minutes prior to a sub-plantar injection of formalin into the right hind paw. The characteristic nociceptive behavioural responses elicited by this injection were rated on a scale from “0”=no effect through to “3”=effect of maximal intensity. As with side effect ratings, all observations were made blind to treatment condition. Ratings of nociception related behaviours were made in two time periods, one from the time of injection for a further five minutes (t=0 to t=5 min), and a second from t=5 min to t=30 min. The response to formalin injection in this model is biphasic, the first phase occurring during the first five minutes consists of a primary inflammation related response. The second phase, occurring over the subsequent 30 minutes is a delayed phase in which the phenomenon of “wind up” or neurally mediated hyperalgesia, is thought to occur. It is the second phase of response that has relevance to sciatica, diabetic neuropathy and other neuropathic chronic pain states. Responses to test compounds were assessed during this second phase from t=5 min to t=30 min. Data were analysed by means of Median tests followed by post hoc Bonferroni corrected Mann-Whitney U-tests.

Row | Compound | IC50 [1] | Minimum effective dose on nociception related behaviours (male Sprague Dawley rats [3]) | melting point | further results
1 | CNC1(c2ccccc2Cl)CCCCC1=O (centres unmarked) [Ketamine, reference compound] | 6.51 ± 4.54 µM | 20 mg/kg | – | Elicitation of PCP syndrome (PCP related behaviours) (male Sprague Dawley rats [2]; rats, intraperitoneal, twenty minutes prior to test, groups of n=8): produces “PCP syndrome”
2 | NCCC1(c2ccccc2)C2CC3CC(C2)CC1C3 (centres unmarked) [Example 1, 2-[2-(2-Phenyl)adamantyl]ethylamine hydrochloride] | 1.09 ± 0.4 µM | 20 mg/kg | – | Elicitation of PCP syndrome (PCP related behaviours) (male Sprague Dawley rats [2]; rats, intraperitoneal, twenty minutes prior to test, groups of n=8, hydrochloride): no tendency to elicit “PCP syndrome.”
3 | NCCC1(c2ccccc2)C2CC3CC(C2)CC1C3 (centres unmarked) (as salt: hydrochloride) [Example 1, 2-[2-(2-Phenyl)adamantyl]ethylamine hydrochloride] | – | – | 278 to 281 °C (dec.) | –
4 | CC12CC3CC(C)(C1)CC(N)(C3)C2 [Memantine, reference compound] | 6.5 ± 0.94 µM | 10 mg/kg | – | Elicitation of PCP syndrome (PCP related behaviours) (male Sprague Dawley rats [2]; rat, in vivo, ip): elicits “PCP syndrome”
5 | Cc1ccc(C2(CC(C)N)C3CC4CC(C3)CC2C4)cc1 (centres unmarked) (as salt: hydrochloride) | – | – | 344 to 346 °C | –
6 | NCCC1(c2cccs2)C2CC3CC(C2)CC1C3 (centres unmarked) (as salt: hydrochloride) [Example 2, 2-[2-[2-(2-Thienyl)]adamantyl]ethylamine hydrochloride] | – | – | 250.6 to 251.9 °C | –
7 | NCCC1(Cc2ccccc2)C2CC3CC(C2)CC1C3 (centres unmarked) (as salt: hydrochloride) | – | – | 195.8 to 196.8 °C | –
8 | NCCC1(c2cccs2)C2CC3CC(C2)CC1C3 (centres unmarked) [Example 2, 2-[2-[2-(2-Thienyl)]adamantyl]ethylamine hydrochloride] | 2.7 ± 0.54 µM | – | – | –
